Measured values from patent US20250369954A1, “PLATFORM AND METHOD TO CO[…] FUN[…] CARD[…] OTHER CELLS ON BOTH SIDES OF A POROUS MEMBRANE” (Government of the United States of America, as represented …, priority 2024, published 2025).

Test system: hiPSC-CM cells
Experiment: Impedance measurement of cardiomyocyte beating on the microfluidic device
Assay type: cell-based, human
Details: 1 μM verapamil, after 10 minutes of treatment, hiPSC-CM on porous membrane
Protocol: In one embodiment, human induced pluripotent stem cell-derived cardiomyocytes (hiPSC-CM) were cultured directly on the PET membrane of the microfluidic device.
Cells in this example were trapped in the region of interest within the device using dielectrophoretic cell capture, directing cells from the microfluidic channel to the electrode. In this example, the entire electrode was covered with cells in increasing density from around 1 to 3 minutes. The following parameters for dielectrophoresis were used in this example: 4-6 Vpp, 12 MHz, […] μl min-1.
In one embodiment, hiPSC-CM cells are captured on one side of the porous membrane as in Example 1. The cardiomyocytes are treated with 1 μM verapamil, a Ca^2+ channel blocker used for treating arrhythmia.

`COc1ccc(CCN(C)CCCC(C#N)(c2ccc(OC)c(OC)c2)C(C)C)cc1OC` (stereo not shown) [verapamil] was tested, and the “effect on cardiomyocyte beating (change in impedance)” value was “cessation of cardiomyocyte beating”.
